Source: patent US20240262801A1, “COMPOUNDS HAVING 5-(2-FLUORO-6-HYDROXYPHENYL)-1,2,5-THIADIAZOLIDIN-3-ONE 1,1-DIOXIDE AS INHIBITORS OF PROTEIN KINASE PHOSPHATASE ENZYMES” (Ness Therapeutics, Inc., priority 2021, published 2024)
Read-outs that look alike come from different tables or passages of the source.

What was measured:
GST-tagged PTPN2 protein = molecular target: T1, GST-tagged PTPN2 protein (Homo sapiens, UniProt P17706); experiment: Primary assay of PTPN2 enzymatic activity inhibition (DiFMUP fluorescence); assay type: biochemical; details: DiFMUP substrate 2 μM, 60 min at RT
T1 construct: purchased ActiveMotif 31592
T1 sequence (P17706 with tags, fused parts or gaps): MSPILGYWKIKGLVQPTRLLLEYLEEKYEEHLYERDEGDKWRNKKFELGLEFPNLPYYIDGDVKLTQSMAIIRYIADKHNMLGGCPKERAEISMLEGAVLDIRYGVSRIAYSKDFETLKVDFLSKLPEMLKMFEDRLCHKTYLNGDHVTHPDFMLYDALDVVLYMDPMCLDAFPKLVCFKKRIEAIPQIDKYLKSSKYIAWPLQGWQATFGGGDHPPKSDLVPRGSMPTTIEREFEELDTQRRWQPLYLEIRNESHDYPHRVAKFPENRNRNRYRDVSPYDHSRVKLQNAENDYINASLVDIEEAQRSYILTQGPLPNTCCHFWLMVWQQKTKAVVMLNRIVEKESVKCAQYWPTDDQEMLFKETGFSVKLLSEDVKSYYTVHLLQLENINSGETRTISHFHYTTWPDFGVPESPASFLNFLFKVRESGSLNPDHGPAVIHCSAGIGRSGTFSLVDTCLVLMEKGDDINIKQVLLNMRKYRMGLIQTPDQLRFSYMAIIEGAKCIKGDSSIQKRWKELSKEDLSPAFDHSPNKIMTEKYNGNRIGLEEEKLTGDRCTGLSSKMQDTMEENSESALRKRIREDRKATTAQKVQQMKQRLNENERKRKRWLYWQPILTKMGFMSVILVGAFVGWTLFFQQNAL
Description: Compound activity was determined using GST-tagged PTPN2 protein (Cat #31592, ActiveMotif) (SEQ ID NO: 1) in an in vitro enzymatic reaction. The enzymatic reaction was carried out in assay buffer (50 mM HEPES Na salt pH 7.2-7.4, 2 mM EDTA, 100 mM NaCl, 52 ng/μL BSA, and 6 mM DTT). The compounds were dispensed on a 384 well Diamond Well Plate (Axigen, Cat #P-384-120SQ-C-S) using the Biomek FX liquid handling system at 100× solutions of compounds in DMSO. 2× PTPN2 (final concentration 0.004 ng/μL) was prepared in 1× Assay buffer and 25 μL of mixture per well was added into Reaction plate (Optiplate, black, Perkin Elmer, Cat #6007270). Add 25 μL of 1× buffer to Ctrl- (Substrate w/o PTPN2) wells followed by centrifugation at 100 g for 1 min. Next step the Compounds were added to Reaction plate using Biomek station via following steps: 3 ul of 100× compounds (in DMSO) were mixed with 27 μL of Assay Buffer, then 5 μL of this mixture was added to Reaction plate with 25 μL of PTPN2 Mix. Plates were centrifuged for 1 min at 100 g and incubated for another 10 minutes at room temperature. Finally, 20 μL of 2.5× Substrate (DiFUMP, Invitrogen™ Cat #D6567) mix was added into appropriate wells of Reaction plate to the final concentration of 2 μM, plate was centrifuged at 100 g for 1 min followed by incubation at RT for 60 min, and the Fluorescence Intensity was measured using a Microplate Reader (ClarioStar Plus, excitation 360 nm, emission 450 nm). The % inhibition was then used to calculate the IC50 values. The IC50 values are shown in Table A1, wherein “A” corresponds to IC50<5.0 nm, “B” corresponds to 5.0 nm≤IC50<10.0 nm, “C” corresponds to 10.0 nm≤IC50<50.0 nm, “D” corresponds to 50.0 nm≤IC50<100.0 nm, and “E” corresponds to 100.0 nm≤IC50<500.0 nm, and “F” corresponds to 500.0 nm≤IC50.

[1] = test system: B16F10 mouse melanoma cells; experiment: Tumor cells B16F10 cellular growth IFNγ-induced inhibition assay (CellTiter-Glo); assay type: cell-based; details: for IC50: B16-F10, 72 h, 3 days incubation; for inhibition at 100 µM: B16-F10, B16F10, 100 μM compound; for inhibition at 40 µM: B16-F10, B16F10, 40 μM compound
Description: B16F10 mouse melanoma cells (ATCC Cat #CRL-6475) were seeded at a density of 500 cells per well in a 384-well clear bottom plate (Corning Cat #3712, Corning, N.Y.) in 40 μL total volume of DMEM+10% FBS (PanEco Cat #C420, Russia and Sigma Cat #F4135, St. Louis, Mo.). Cells were allowed to adhere overnight at 37° C., 5% CO2. On the following day, 250× solutions of compounds in DMSO (Sigma Cat #D2650) were prepared into […] plate (Diamond Well Plate, Axigen, Cat #P-384-120SQ-C-S) (final concentration of 1×) and DMSO only controls were included. Dilution Plate (Diamond Well Plate (Axigen, Cat #P-384-120SQ-C-S) was prepared by adding 49 μL of culture medium per well: half of the plate with culture medium only, half with culture medium+IFNγ (5 ng/ml). A 1 μL aliquot of 250× compounds ([…] plate) was added to 49 μL of culture medium (Dilution plate), then a 10 μL aliqut of the mixture was transferred to Reaction plate with 40 μL of cells followed by centrifugation at 240 g for 1 min. After 3 days of incubation, 10 μL of CellTiter-Glo (Promega) was added to the cells, plates were centrifuged at 240 g for 1 min, and luminescence signal was measured. For each compound, the percent growth inhibition at every compound dose level was calculated relative to the “DMSO/with IFNγ” control and used to determine the IC50.

[2] = B16F10, + IFNγ, read-out: IC50 + IFNγ
[3] = B16F10, no IFNγ, read-out: IC50 no IFNγ
[4] = + IFNγ, read-out: % Growth Inhibition at 100 μM + IFNγ
[5] = no IFNγ, read-out: % Growth Inhibition at 100 μM no IFNγ

| Structure (SMILES) | IC50 (GST-tagged PTPN2 protein) [nM] | IC50 [1, 2] [µM] | IC50 [1, 3] [µM] | inhibition at 100 µM [1, 4] [%] | inhibition at 100 µM [1, 5] [%] | inhibition at 40 µM ([1]; + IFNγ, read-out: % Growth Inhibition + IFNγ @ 40 μM) [%] | inhibition at 40 µM ([1]; no IFNγ, read-out: % Growth Inhibition no IFNγ @ 40 μM) [%] |
| --- | --- | --- | --- | --- | --- | --- | --- |
| O=C1CN(c2c(O)cc(-c3cccc(NC4CCN(S(=O)(=O)Cc5ccccc5)CC4)c3)cc2F)S(=O)(=O)N1 [Example 12, 5-(3′-{[1-(benzylsulfonyl)piperidin-4-yl]amino}-3-fluoro-5-hydroxybiphenyl-4-yl)-1,2,5-thiadiazolidin-3-one 1,1-dioxide] | 100 to 500 | ≥ 100 | ≥ 100 | 10 to 50 | 10 to 50 | – | – |
| CC(C)CCN1CC(CNC(=O)Nc2cc(O)c(N3CC(=O)NS3(=O)=O)c(F)c2)C2(CCCCC2)C1 (stereo not drawn) [Example 102, 1-[3-fluoro-5-hydroxy-4-(1,1,4-trioxo-1,2,5-thiadiazolidin-2-yl)phenyl]-3-[(2-isopentyl-2-azaspiro[4.5]decan-4-yl)methyl]urea] | 5 to 10 | ≥ 100 | ≥ 100 | 10 to 50 | 10 to 50 | – | – |
| CC(C)(C)c1ccc(S(=O)(=O)Nc2cc(O)c(N3CC(=O)NS3(=O)=O)c(F)c2)cc1 [Example 24, 4-tert-butyl-N-[4-(1,1-dioxido-4-oxo-1,2,5-thiadiazolidin-2-yl)-3-fluoro-5-hydroxyphenyl]benzenesulfonamide] | 10 to 50 | ≥ 100 | ≥ 100 | 50 to 75 | 10 to 50 | – | – |
| CCOc1ccccc1-c1cc(O)c(N2CC(=O)NS2(=O)=O)c(F)c1 [Example 5, 5-(2′-ethoxy-3-fluoro-5-hydroxybiphenyl-4-yl)-1,2,5-thiadiazolidin-3-one 1,1-dioxide] | 100 to 500 | ≥ 100 | ≥ 100 | 50 to 75 | 10 to 50 | – | – |
| O=C1CN(c2c(O)cc(NC(=O)Nc3ccc(C(F)(F)F)cc3)cc2F)S(=O)(=O)N1 [Example 41, 1-[4-(1,1-dioxido-4-oxo-1,2,5-thiadiazolidin-2-yl)-3-fluoro-5-hydroxyphenyl]-3-[4-(trifluoromethyl)phenyl]urea] | 5 to 10 | 50 to 100 | ≥ 100 | 50 to 75 | 10 to 50 | – | – |
| CC(C)(C)c1ccc(C(=O)Nc2cc(O)c(N3CC(=O)NS3(=O)=O)c(F)c2)cc1 [Example 16, 4-tert-butyl-N-[4-(1,1-dioxido-4-oxo-1,2,5-thiadiazolidin-2-yl)-3-fluoro-5-hydroxyphenyl]benzamide] | 100 to 500 | ≥ 100 | ≥ 100 | 10 to 50 | 10 to 50 | – | – |
| COc1cccc(-c2cc(O)c(N3CC(=O)NS3(=O)=O)c(F)c2)c1 [Example 1, 5-(3-fluoro-5-hydroxy-3′-methoxybiphenyl-4-yl)-1,2,5-thiadiazolidin-3-one 1,1-dioxide] | 100 to 500 | ≥ 100 | ≥ 100 | 10 to 50 | 10 to 50 | – | – |
| O=C1CN(c2c(O)cc(NC(=O)N[C@H](CO)c3ccccc3)cc2F)S(=O)(=O)N1 [Example 103, 1-[3-fluoro-5-hydroxy-4-(1,1,4-trioxo-1,2,5-thiadiazolidin-2-yl)phenyl]-3-[(1S)-2-hydroxy-1-phenylethyl]urea] | 5 to 10 | < 5 | ≥ 100 | 75 to 100 | 10 to 50 | – | – |
| O=C1CN(c2c(O)cc(NC(=O)NCC3CNCC34CCCCC4)cc2F)S(=O)(=O)N1 (stereo not drawn) [Example 100, 1-(2-azaspiro[4.5]decan-4-ylmethyl)-3-[3-fluoro-5-hydroxy-4-(1,1,4-trioxo-1,2,5-thiadiazolidin-2-yl)phenyl]urea] | 10 to 50 | 10 to 50 | ≥ 100 | 50 to 75 | 10 to 50 | – | – |
| O=C1CN(c2c(O)cc(NS(=O)(=O)c3ccc(F)cc3)cc2F)S(=O)(=O)N1 [Example 20, N-[4-(1,1-dioxido-4-oxo-1,2,5-thiadiazolidin-2-yl)-3-fluoro-5-hydroxyphenyl]-4-fluorobenzenesulfonamide] | 50 to 100 | 10 to 50 | ≥ 100 | 50 to 75 | 10 to 50 | – | – |

Continued, in another order:

| IC50 (GST-tagged PTPN2 protein) [nM] | IC50 [1, 2] [µM] | IC50 [1, 3] [µM] | Structure (SMILES) | inhibition at 100 µM [1, 4] [%] | inhibition at 100 µM [1, 5] [%] | inhibition at 40 µM ([1]; + IFNγ, read-out: % Growth Inhibition + IFNγ @ 40 μM) [%] | inhibition at 40 µM ([1]; no IFNγ, read-out: % Growth Inhibition no IFNγ @ 40 μM) [%] |
| --- | --- | --- | --- | --- | --- | --- | --- |
| 10 to 50 | 50 to 100 | ≥ 100 | Cc1ccccc1NC(=O)Nc1cc(O)c(N2CC(=O)NS2(=O)=O)c(F)c1 [Example 39, 1-[4-(1,1-dioxido-4-oxo-1,2,5-thiadiazolidin-2-yl)-3-fluoro-5-hydroxyphenyl]-3-(2-methylphenyl)urea] | 50 to 75 | 10 to 50 | – | – |
| 10 to 50 | 10 to 50 | ≥ 100 | COc1ccc(CNC(=O)Nc2cc(O)c(N3CC(=O)NS3(=O)=O)c(F)c2)cc1 [Example 63, 1-[4-(1,1-dioxido-4-oxo-1,2,5-thiadiazolidin-2-yl)-3-fluoro-5-hydroxyphenyl]-3-(4-methoxybenzyl)urea] | 75 to 100 | 10 to 50 | – | – |
| < 5 | ≥ 100 | ≥ 100 | COc1ccc(NC(=O)Nc2cc(O)c(N3CC(=O)NS3(=O)=O)c(F)c2)cc1 [Example 37, 1-[4-(1,1-dioxido-4-oxo-1,2,5-thiadiazolidin-2-yl)-3-fluoro-5-hydroxyphenyl]-3-(4-methoxyphenyl)urea] | 10 to 50 | 10 to 50 | – | – |
| < 5 | 50 to 100 | ≥ 100 | Cc1ccc(NC(=O)Nc2cc(O)c(N3CC(=O)NS3(=O)=O)c(F)c2)cc1 [Example 36, 1-[4-(1,1-dioxido-4-oxo-1,2,5-thiadiazolidin-2-yl)-3-fluoro-5-hydroxyphenyl]-3-(4-methylphenyl)urea] | 50 to 75 | 10 to 50 | – | – |
| 100 to 500 | 10 to 50 | 10 to 50 | COc1ccc(C(=O)Nc2cc(O)c(N3CC(=O)NS3(=O)=O)c(F)c2)cc1 [Example 15, N-[4-(1,1-dioxido-4-oxo-1,2,5-thiadiazolidin-2-yl)-3-fluoro-5-hydroxyphenyl]-4-methoxybenzamide] | – | – | 10 to 50 | 10 to 50 |
| 10 to 50 | 10 to 50 | ≥ 100 | O=C1CN(c2c(O)cc(NC(=O)NCC3CCCO3)cc2F)S(=O)(=O)N1 (stereo not drawn) [Example 57, 1-[4-(1,1-dioxido-4-oxo-1,2,5-thiadiazolidin-2-yl)-3-fluoro-5-hydroxyphenyl]-3-(tetrahydrofuran-2-ylmethyl)urea] | 50 to 75 | 10 to 50 | – | – |
| 10 to 50 | 5 to 10 | ≥ 100 | COCCCNC(=O)Nc1cc(O)c(N2CC(=O)NS2(=O)=O)c(F)c1 [Example 58, 1-[4-(1,1-dioxido-4-oxo-1,2,5-thiadiazolidin-2-yl)-3-fluoro-5-hydroxyphenyl]-3-(3-methoxypropyl)urea] | 75 to 100 | 10 to 50 | – | – |
| < 5 | ≥ 100 | ≥ 100 | Cc1cccc(NC(=O)Nc2cc(O)c(N3CC(=O)NS3(=O)=O)c(F)c2)c1 [Example 42, 1-[4-(1,1-dioxido-4-oxo-1,2,5-thiadiazolidin-2-yl)-3-fluoro-5-hydroxyphenyl]-3-(3-methylphenyl)urea] | 10 to 50 | 10 to 50 | – | – |
